Measurements reported in ChEMBL document CHEMBL1201862, “PubChem BioAssay data set” (2004).
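Five concentrations, 48 hours, 96-well plates. Here, GI50 denotes the concentration required for 50% inhibition of growth.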 Activity calls are given as the source filed them. No stated cut-off is given here; in the data, active = GI50 up to about 1.1 µM and inactive = higher.

How the values were obtained:
Test in all cases: NCI-60 cell line screen, 48 h
Malme-3M = system: Malme-3M
HL-60 = system: HL-60
SN12C = system: SN12C
SNB-78 = system: SNB-78
CCRF-CEM = system: CCRF-CEM
SF-268 = system: SF-268
CAKI-1 = system: CAKI-1
SNB-19 = system: SNB-19
SK-MEL-2 = system: SK-MEL-2
IGROV-1 = system: IGROV-1
A549 = system: A549
SR = system: SR
A498 = system: A498
SK-MEL-5 = system: SK-MEL-5
SK-MEL-28 = system: SK-MEL-28
TK-10 = system: TK-10
HOP-62 = system: HOP-62
T47D = system: T47D
MDA-MB-435 = system: MDA-MB-435
BT-549 = system: BT-549

SMILES	GI50 (Malme-3M)	GI50 (HL-60)	GI50 (SN12C)	GI50 (SNB-78)	GI50 (CCRF-CEM)	GI50 (SF-268)	GI50 (CAKI-1)	GI50 (SNB-19)	GI50 (SK-MEL-2)	GI50 (IGROV-1)	GI50 (A549)	GI50 (SR)	GI50 (A498)	GI50 (SK-MEL-5)	GI50 (SK-MEL-28)	GI50 (TK-10)	GI50 (HOP-62)	GI50 (T47D)	GI50 (MDA-MB-435)	GI50 (BT-549)
O=c1/c(=C/c2ccccc2F)sc2nc3ccccc3n12	> 100 µM (inactive)	> 100 µM (inactive)	> 100 µM (inactive)	> 100 µM (inactive)	> 100 µM (inactive)	61.5 µM (inactive)	> 100 µM (inactive)	> 100 µM (inactive)	> 100 µM (inactive)	> 100 µM (inactive)	> 100 µM (inactive)	38.3 µM (inactive)	> 100 µM (inactive)	> 100 µM (inactive)	> 100 µM (inactive)	> 100 µM (inactive)	–	–	–	–
Cc1c(C(=O)CSc2nc3ccccc3[nH]2)c(=O)n(-c2ccccc2)n1C	34.9 µM (inactive)	> 100 µM (inactive)	> 100 µM (inactive)	> 100 µM (inactive)	> 100 µM (inactive)	> 100 µM (inactive)	> 100 µM (inactive)	> 100 µM (inactive)	> 100 µM (inactive)	> 100 µM (inactive)	> 100 µM (inactive)	> 100 µM (inactive)	> 100 µM (inactive)	> 100 µM (inactive)	> 100 µM (inactive)	> 100 µM (inactive)	> 100 µM (inactive)	–	–	–
COc1cccc2c1C(=O)c1c(O)c3c(c(O)c1C2=O)C[C@@](O)(C(C)O)C[C@@H]3OC1CC(N)C(O)C(C)O1 (stereo partly drawn)	0.491 µM (active)	0.171 µM (active)	0.993 µM (active)	1.88 µM (inactive)	0.148 µM (active)	1.05 µM (active)	0.408 µM (active)	0.883 µM (active)	1.41 µM (inactive)	2.2 µM (inactive)	0.946 µM (active)	0.16 µM (active)	2.18 µM (inactive)	0.834 µM (active)	1.42 µM (inactive)	2.5 µM (inactive)	0.861 µM (active)	–	–	–
C=C1C(=O)OC2/C=C(\CO)C3OC3C3OC3(C)CC(OC(=O)/C(=C/C)COC(C)=O)C12 (stereo not drawn)	1.67 µM (inactive)	1.39 µM (inactive)	3.2 µM (inactive)	1.73 µM (inactive)	2.29 µM (inactive)	11.2 µM (inactive)	1.95 µM (inactive)	15.1 µM (inactive)	3.31 µM (inactive)	13.2 µM (inactive)	18.6 µM (inactive)	2.09 µM (inactive)	13.8 µM (inactive)	8.13 µM (inactive)	1.82 µM (inactive)	2.94 µM (inactive)	21.6 µM (inactive)	3.01 µM (inactive)	2.59 µM (inactive)	1.77 µM (inactive)
O=C1OC(O)C(Oc2c(Cl)cccc2Cl)=C1Cl (stereo not drawn)	26.5 µM (inactive)	20 µM (inactive)	17 µM (inactive)	36.1 µM (inactive)	19.9 µM (inactive)	16 µM (inactive)	18.9 µM (inactive)	27.5 µM (inactive)	15.3 µM (inactive)	17.2 µM (inactive)	17.2 µM (inactive)	21.7 µM (inactive)	22.2 µM (inactive)	14.2 µM (inactive)	20.2 µM (inactive)	23.6 µM (inactive)	17.7 µM (inactive)	–	–	–
N#CC1=C(N)N2C(=O)/C(=C/c3ccccc3)SC2C(c2nc3ccccc3[nH]2)=C1c1ccccc1 (stereo not drawn)	1.75 µM (inactive)	2.31 µM (inactive)	2.91 µM (inactive)	2.52 µM (inactive)	1.96 µM (inactive)	2.42 µM (inactive)	2.07 µM (inactive)	3.4 µM (inactive)	2.04 µM (inactive)	2.19 µM (inactive)	3.87 µM (inactive)	1.91 µM (inactive)	2.12 µM (inactive)	1.83 µM (inactive)	3.12 µM (inactive)	2.42 µM (inactive)	2.44 µM (inactive)	–	–	–
Cc1ccc(C(=O)NCc2ccccc2)cc1/N=N/N(C)C	> 100 µM (inactive)	37.2 µM (inactive)	> 100 µM (inactive)	> 100 µM (inactive)	87.7 µM (inactive)	> 62.5 µM (inactive)	> 100 µM (inactive)	> 100 µM (inactive)	> 100 µM (inactive)	> 100 µM (inactive)	> 77.8 µM (inactive)	60 µM (inactive)	–	> 74.3 µM (inactive)	> 96.6 µM (inactive)	> 100 µM (inactive)	> 100 µM (inactive)	39.7 µM (inactive)	> 100 µM (inactive)	> 100 µM (inactive)
